Reference: the supplement of paper PMC11424490

Key:
NCI-H2122 = test: fitted bottom plateau of viability curve, % of DMSO control; higher = less maximal inhibition; extreme values may be limits of the assay
Procedure: (§1)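 CellTiter-Glo proliferation assay in KRAS G12C mutant NCI-H2122 (72 h), SW837 (144 h) and NCI-H358 cells in 384-well plates. Monotherapy dose response was fitted with a four-parameter curve after normalisation to DMSO controls (% of control, PoC). IC50 is the relative IC50, averaged over replicates. Bottom is the fitted lower plateau in %PoC; Max.Conc. is the top dose tested.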

SW837 = test: as above
Procedure: as §1

| SMILES | fitted bottom plateau of viability curve (NCI-H2122) | fitted bottom plateau of viability curve (SW837) |
| --- | --- | --- |
| CC(C)(C(=O)NCC(F)(F)C(F)(F)F)C(=O)N[C@@H]1C(=O)Nc2ccccc2-c2ccccc21 (top concentration tested 9999.9 nM) | 77.8% | 98.6% |
| NC(=O)c1ccc(-c2nc(-c3ccccn3)c(-c3ccc4c(c3)OCO4)[nH]2)cc1 (top concentration tested 9999.9 nM) | 96.2% | 96.5% |
| c1ccc(-c2nn3c(c2-c2ccnc4cc(OCCN5CCOCC5)ccc24)CCC3)nc1 (top concentration tested 9999.9 nM) | 78.1% | 90.3% |
| CN(C)CCCC(=O)Nc1n[nH]c2nnc(-c3ccccc3)cc12 (top concentration tested 10000 nM) | 76.1% | 85.9% |
| COc1ccc(Cn2ccc3ccc(C(=O)NO)cc32)cc1 (top concentration tested 10000 nM) | 67.3% | 99.9% |
| On1ncc2cc(CCc3nn[nH]n3)ccc21 (top concentration tested 10000 nM) | 73.1% | 88.1% |
| Cc1cc(Nc2nc(N[C@@H](C)c3ncc(F)cn3)ncc2Cl)[nH]n1 [AZD-1480] (top concentration tested 10000 nM) | 67% | 87.9% |
| NC(=O)Nc1cc(-c2cccc(F)c2)sc1C(=O)N[C@H]1CCCNC1 [AZD-7762] (top concentration tested 99.882 nM) | 62.8% | 89.7% |
| Cc1ncc([N+](=O)[O-])n1CCOC(=O)NC(Nc1ncccn1)C(Cl)(Cl)Cl (stereo not given) [Apcin] (top concentration tested 10000 nM) | 83.2% | 95.3% |
| CCN1CCN(c2ccc(Nc3cc(N(C)C(=O)Nc4c(Cl)c(OC)cc(OC)c4Cl)ncn3)cc2)CC1 [BGJ398] (top concentration tested 1000 nM) | 78.2% | 90.4% |
| O=C(Cc1ccccc1)Nc1nnc(CCSCCc2nnc(NC(=O)Cc3ccccc3)s2)s1 [BPTES] (top concentration tested 10000 nM) | 56.3% | 90.2% |
| Nc1nc(Nc2ccc3c(c2)CC[C@@H](N2CCCC2)CC3)nn1-c1cc2c(nn1)-c1ccccc1CCC2 [Bemcentinib] (top concentration tested 1000.1 nM) | 70.6% | 84.4% |
| C=C(c1ccc(C(=O)O)cc1)c1cc2c(cc1C)C(C)(C)CCC2(C)C [Bexarotene] (top concentration tested 10000 nM) | 89.9% | 96.9% |
| CC(O)(CS(=O)(=O)c1ccc(F)cc1)C(=O)Nc1ccc(C#N)c(C(F)(F)F)c1 (stereo not given) [Bicalutamide] (top concentration tested 10000 nM) | 71.7% | 77.3% |
| O=C(O)CCCCC(CCSCc1ccccc1)SCc1ccccc1 (stereo not given) [CPI-613] (top concentration tested 10000 nM) | 93.6% | 89.5% |
| CCCCCOC(=O)Nc1nc(=O)n([C@@H]2O[C@H](C)[C@@H](O)[C@H]2O)cc1F [Capecitabin] (top concentration tested 50000 nM) | 75.7% | 101% |
| C[C@H](CS)C(=O)N1CCC[C@H]1C(=O)O [Captopril] (top concentration tested 1000 nM) | 65.1% | 91.7% |
| O=C(O)C1(C(=O)O)CCC1.[NH2-].[NH2-].[Pt+2] [Carboplatin] (top concentration tested 10000 nM) | 63.4% | 88.3% |
| COc1cc2c(Oc3ccc4[nH]c(C)cc4c3F)ncnc2cc1OCCCN1CCCC1 [Cediranib] (top concentration tested 100.11 nM) | 70% | 90.6% |
| N.N.[Cl][Pt][Cl] [Cisplatin] (top concentration tested 10000 nM) | 75.2% | 88.2% |

| SMILES | fitted bottom plateau of viability curve (NCI-H2122) | fitted bottom plateau of viability curve (SW837) |
| --- | --- | --- |
| CC(C)(C)c1nc(-c2cccc(NS(=O)(=O)c3c(F)cccc3F)c2F)c(-c2ccnc(N)n2)s1 [Dabrafenib] (top concentration tested 1000.1 nM) | 73.8% | 93.1% |
| C[C@@H]1C[C@H]2[C@@H]3CCC4=CC(=O)C=C[C@]4(C)[C@@]3(F)[C@@H](O)C[C@]2(C)[C@@]1(O)C(=O)CO [Dexamethasone] (top concentration tested 10000 nM) | 58.2% | 82% |
| CNC(=O)c1ccc(N2C(=S)N(c3ccc(C#N)c(C(F)(F)F)c3)C(=O)C2(C)C)cc1F [Enzalutamide] (top concentration tested 10000 nM) | 83.9% | 93.1% |
| CO[C@H]1C[C@@H]2CC[C@@H](C)[C@@](O)(O2)C(=O)C(=O)N2CCCC[C@H]2C(=O)O[C@H]([C@H](C)C[C@@H]2CC[C@@H](OCCO)[C@H](OC)C2)CC(=O)[C@H](C)/C=C(\C)[C@@H](O)[C@@H](OC)C(=O)[C@H](C)C[C@H](C)/C=C/C=C/C=C/1C [Everolimus] (top concentration tested 99.976 nM) | 76.4% | 95.4% |
| Nc1nc(F)nc2c1ncn2[C@@H]1O[C@H](CO)[C@@H](O)[C@@H]1O [Fludarabine] (top concentration tested 9999.9 nM) | 71% | 59.4% |
| C[C@]12CC[C@@H]3c4ccc(O)cc4C[C@@H](CCCCCCCCC[S+]([O-])CCCC(F)(F)C(F)(F)F)[C@H]3[C@@H]1CC[C@@H]2O (stereo not given in full) [Fulvestrant] (top concentration tested 1000 nM) | 75.9% | 91.1% |
| CN(C)c1ccccc1CN1CCCN(Cc2ccccc2N(C)C)C1c1ccncc1 [GANT61] (top concentration tested 10000 nM) | 70.7% | 83.1% |
| Cc1ccc(NC(=O)c2ccc(CN3CCN(C)CC3)cc2)cc1Nc1nccc(-c2cccnc2)n1 [Imatinib] (top concentration tested 1000 nM) | 71% | 95.9% |
| CN[C@@H](C)C(=O)N[C@H](C(=O)N1CCC[C@H]1c1nc(C(=O)c2ccc(F)cc2)cs1)C1CCCCC1 [LCL161] (top concentration tested 10000 nM) | 69.3% | 86.1% |
| Nc1cccc2c1CN(C1CCC(=O)NC1=O)C2=O (stereo not given) [Lenalidomide] (top concentration tested 10000 nM) | 84.3% | 89.9% |
| O=C(O)c1nn(Cc2ccc(Cl)cc2Cl)c2ccccc12 [Lonidamine] (top concentration tested 10000 nM) | 77.4% | 86.4% |
| CC[C@H](C)C(=O)O[C@H]1C[C@@H](C)C=C2C=C[C@H](C)[C@H](CC[C@@H]3C[C@@H](O)CC(=O)O3)[C@H]21 [Lovastatin] (top concentration tested 10000 nM) | 56.1% | 83.6% |
| Cc1ccc(NC(=O)c2ccc(CN3CCN(C)CC3)cc2)cc1Nc1nc(-c2cccnc2)cs1 [Masitinib] (top concentration tested 1000.1 nM) | 79.5% | 95.6% |
| C[C@H](Cc1ccc(O)c(O)c1)[C@@H](C)Cc1ccc(O)c(O)c1 [Masoprocol] (top concentration tested 9999.8 nM) | 71.4% | 86.2% |
| CN(C)C(=N)NC(=N)N [Metformin] (top concentration tested 50000 nM) | 76.5% | 97.5% |
| CN1CCN(c2ccc(-c3cccc(CN4CCOCC4)c3)cc2NC(=O)c2c[nH]c(=O)cc2C(F)(F)F)CC1 [OICR-9429] (top concentration tested 10000 nM) | 62.6% | 95.4% |
| N[C@H]1CC[C@H](N[C@@H]2C[C@H]2c2ccccc2)CC1 [ORY-1001] (top concentration tested 49.848 nM) | 68.1% | 90.5% |
| CCCS(=O)(=O)Nc1ccc(F)c(C(=O)c2c[nH]c3ncc(Cl)cc23)c1F [PLX4720] (top concentration tested 10000 nM) | 73.6% | 101% |
| Cc1ccc(Nc2nccc(N(C)c3ccc4c(C)n(C)nc4c3)n2)cc1S(N)(=O)=O [Pazopanib] (top concentration tested 10000 nM) | 80.9% | 91.9% |
| CC(C)(C)c1cc(NC(=O)Nc2ccc(-c3cn4c(n3)sc3cc(OCCN5CCOCC5)ccc34)cc2)no1 [Quizartinib] (top concentration tested 1000.1 nM) | 79.3% | 94.1% |
